The text below walks through data of patent US20240024255A1 (priority 2022, published 2024).

Marks after values point to notes of the source that are not given here.

Data set [1] has as its target Monoamine oxidase-B (MAO-B). The data set is described as follows: MAO-B inhibition assay (rat liver homogenate). Type of data set: biochemical. As to the method:
The rat liver tissues were quickly removed to wash in ice-cold potassium phosphate buffer (0.2 M, pH 7.6), and stored at −80° C. 5 g of liver tissue was homogenized (1:20, w/v) in 0.3 M sucrose at 4° C. and centrifuged at 2000×g for 10 min. The supernatant was further centrifuged at 12000×g for 25 min. The resulting pellet suspended in minimal volume in 0.3 M sucrose and overlay on 1.3 M sucrose and centrifuge at 12000×g (40 min) to obtain a crude mitochondrial pellet. The pellet was resuspended in 2 mL 0.2 M phosphate buffer (pH 7.6) used as MAO-B enzyme source. Total protein concentration was measured by the method of Bradford and adjusted with buffer (0.2 M; pH 7.6) to 0.5 mg protein per ml (stock solution) and stored at −80° C. in aliquots until required.
The assay was carried out in 96-well microplates according to the process modified by Holt' et al. (1997). […] Paragyline was used as the standard inhibitor.

The format of data set [2] is in vitro ADME. As to the method:
Briefly, 20 mL of the saline solution containing 1 mL plant extracts were acidified to pH 2.0 by adding porcine pepsin preparation (40 mg/mL in 0.1 M HCl) and allowed for gastric digestion at 37° C. in a shaker incubator. After 1 h, the pH of the solution was adjusted to 5.3 using 0.9 M NaHCO3 solution. To this added 200 μL of bovine and porcine bile extract solution (100 mg/mL in saline), and 100 μL of pancreatin solution (80 mg/mL in saline). The pH was readjusted to 7.5 using 1 M NaOH followed by incubation at 37° C. for 2 h to accomplish the intestinal digestion phase. Aliquots of samples before and after digestion were centrifuged at 5000 g; upper phase used for anti-lipase and antioxidant assays. The samples were further used for HPLC analysis to determine the bioavailability.
HPLC analysis of the samples before and after gastrointestinal digestion was performed following the in-house validated chromatographic conditions using a Shimadzu LC2030 C Prominence-i (Japan) system equipped with a high sensitivity LC2030 ultraviolet (UV) detector and LabSolutions software.

Details of data set [3]: species or system Wistar rats. Particulars: rat, in vivo, po, 1000 mg/kg. How it is done:
Twelve healthy male Wistar rats aged 10-12-week-old (250-300 g) were used for the bioavailability study. The animals were procured from Biogen Laboratory Animal Facility, Bangalore, India (Reg No. 971/PO/RcBiBt/S/06/CPCSEA). All the animals were housed in air-conditioned room under temperature (22±3° C.) and humidity (30-70%) controlled environment. The rats were fed standard rodent diet and water ad libitum. The animal experimentation protocol was approved by the Institutional Animal Ethics Committee (IAEC) of Vidya Herbs Pvt Ltd., Bangalore, India (VHPL/PCL/IAEC/02/2021).
After 7-day acclimatization, the animals were fasted overnight prior to the experiment, with free access to water. […] The sample size was determined by power analysis (Festing and Altman, 2002) using the formula,
The extracts were formulated in a mixture of Cremaphor, Tween 80, ethanol, and water. The extracts were administered by oral gavage at a single dose of 1000 mg/kg. The animals were anesthetised in anaesthesia chamber supplied with 2% gaseous isoflurane. Blood samples were collected from tail vein at 0.25, 0.5, 1, 2, 4, 8, 12 and 24 h after oral administration of extracts. The blood samples collected in heparinized tubes were centrifuged at 3000 rpm for 10 min. The plasma samples were stored at −20° C. for further analysis. […]

For data set [4], the system named is carrageenan-induced paw edema. The data set is described as follows: Carrageenan-induced acute inflammatory model (paw edema). Type of data set: in vivo, Wistar rats. Particulars: Indomethacin 10 mg/kg.bw. As to the method: Wistar rats were randomly allotted into six groups (n=6) and kept for 7-day acclimatization. Group 1 was treated as control, group 2 received indomethacin 10 mg/kg.bw. […] All animal studies have been carried out by following the animal ethical guidelines and regulation of Institutional Animal Ethics Committee of Vidya Herbs Pvt. Ltd. Bangalore. India. with the protocol number VHPL/PCL/IAEC/08/19.
The carrageenan-induced paw edema test was performed in accordance with the method 17 with some modifications. Drugs were administered to all the respective groups. One hour later, the animals were injected with 0.01 mL of 1% (w/v) freshly prepared carrageenan solution into the right-hind paw sub plantar injection. Paw thickness and volume were measured after 30 min, 1, 2, 4, and 24 h after carrageenan injection using Vernier callipers and Plethysmometer, respectively. The percentage inhibition of inflammation was calculated.
Data were analyzed using one-way analysis of variance (ANOVA) with Duncan multiple range test for means ±standard error, where *P<0.001 was considered to indicate statistically significant difference between groups. All the experimental data were derived from three independent experiments.

As to `C#CCN(C)Cc1ccccc1` [paragyline], the “MAO-B IC-50” value in data set [1] was 6.5 µg/mL.

Turning to `O=C(/C=C/c1ccc(O)cc1)CC(=O)/C=C/c1ccc(O)cc1` [BDMC, bisdemethoxycurcumin], in data set [2], the “bioavailability with respect to undigested sample” value is “considerably higher” and the “concentration in the samples at different digestive phases” value is given as “remained unchanged”. For the same compound, the AUC0-Last entry in data set [3] was “markedly increased”.

Consider `COc1ccc2c(c1)c(CC(=O)O)c(C)n2C(=O)c1ccc(Cl)cc1` [Indomethacin], for which the Paw thickness in data set [4] (0 h) is 2.41 ± 0.12 mm; in data set [4] (0.5 h) it was 3.18 ± 0.09*** mm; in data set [4] (1 h), 3.73 ± 0.07*** mm; in data set [4] (2 h) it was 3.12 ± 0.11*** mm; in data set [4] (4 h), 2.67 ± 0.09*** mm; in data set [4] (24 h), 2.43 ± 0.10*** mm. Moreover, the Paw volume in data set [4] (0 h) is recorded as 1.12 ± 0.04 mL; in data set [4] (0.5 h), 1.32 ± 0.04** mL; in data set [4] (1 h) it was 1.57 ± 0.08*** mL; in data set [4] (2 h), 1.47 ± 0.06*** mL; in data set [4] (4 h), 1.37 ± 0.03*** mL; in data set [4] (24 h) it was 1.16 ± 0.05*** mL.
